Source: patent US20060069132A1, “Azolecarboxamide herbicides” (priority 2004, published 2006)

Key:
[1] = system: lambsquarters; experiment: Test C pre-/postemergence herbicide test; assay type: in vivo, Chenopodium album; conditions: preemergence
Summary of the method: (§1)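 Emerged plants at the 1- to 4-leaf stage (2–18 cm), or freshly planted seeds, received test chemicals in a non-phytotoxic solvent mixture with surfactant. Response was visually scored against controls after 12 to 14 days in the greenhouse, on a 0 (no effect) to 100 (complete control) scale.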

[2] = system: rice; experiment: Test C flooded paddy test; assay type: in vivo, Oryza sativa
Summary of the method: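 Plants were grown to the 1- to 4-leaf stage (2–18 cm) and then treated postemergence, or grown to the 2-leaf stage for the flooded paddy test. They were held in a greenhouse for 12 to 14 days and then scored by eye against controls, where 0 is no effect and 100 is complete control.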

[3] = system: ducksalad; experiment: Test C flooded paddy test; assay type: in vivo, Heteranthera limosa
[4] = system: common (oilseed) sunflower; experiment: Test C pre-/postemergence herbicide test; assay type: in vivo, Helianthus annuus; conditions: preemergence
Summary of the method: as §1

[5] = system: corn; experiment: Test C pre-/postemergence herbicide test; assay type: in vivo, Zea mays; conditions: preemergence; for Plant response rating, Corn: visual, 12 to 14 days
Summary of the method: as §1

[6] = system: yellow nutsedge; experiment: Test C pre-/postemergence herbicide test; assay type: in vivo, Cyperus esculentus; conditions: preemergence
Summary of the method: as §1

[7] = system: Surinam grass; experiment: Test C pre-/postemergence herbicide test; assay type: in vivo, Urochloa decumbens; conditions: preemergence
Summary of the method: as §1

[8] = system: smallflower umbrella sedge; experiment: Test C flooded paddy test; assay type: in vivo, Cyperus difformis
[9] = system: velvetleaf; experiment: Test A pre-/postemergence herbicide test; assay type: in vivo, Abutilon theophrasti
Summary of the method: (§2)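 Both application timings were run together: directed soil spray over freshly planted seeds in sandy loam, and runoff spray onto 2–10 cm seedlings. Evaluation after ~10 days in greenhouse used a 0–100 visual scale versus untreated controls.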

[10] = system: woolly cupgrass; experiment: Test C pre-/postemergence herbicide test; assay type: in vivo, Eriochloa villosa; conditions: preemergence; for Plant response rating, Cupgrass, Woolly: visual, 12 to 14 days
Summary of the method: as §1

[11] = system: giant foxtail; experiment: Test C pre-/postemergence herbicide test; assay type: in vivo, Setaria faberi; conditions: preemergence; for Plant response rating, Foxtail, Giant: visual, 12 to 14 days
Summary of the method: as §1

[12] = system: morningglory; experiment: Test A pre-/postemergence herbicide test; assay type: in vivo, Ipomoea spp.
Summary of the method: as §2

[13] = system: morningglory; experiment: Test C pre-/postemergence herbicide test; assay type: in vivo, Ipomoea coccinea; set-up: key to Plant response rating, Morningglory: 0 = no effect, 100 = complete control; conditions: preemergence
Summary of the method: as §1

[14] = 125 g ai/ha, scale 0 (no effect) to 100 (complete control), visual, 12 to 14 days
[15] = 62 g ai/ha, scale 0 to 100 (0 no effect, 100 complete control)
[16] = 125 g ai/ha, scale 0 to 100 (0 no effect, 100 complete control)
[17] = 250 g ai/ha, scale of 0 to 100, 0 is no effect, 100 is complete control
[18] = 500 g ai/ha, visual rating after 12 to 14 days, scale 0 to 100 (0 no effect, 100 complete control)
[19] = 125 g ai/ha, scale 0 (no effect) to 100 (complete control)
[20] = 250 g ai/ha, scale 0 to 100 (0 no effect, 100 complete control)
[21] = Postemergence, 250 g ai/ha, 0 to 100 scale, 0 no effect, 100 complete control
[22] = Postemergence, 1000 g ai/ha, 0 to 100 scale, 0 no effect, 100 complete control
[23] = Preemergence, 1000 g ai/ha, visual rating, 0 to 100 scale (0 no effect, 100 complete control)
[24] = preemergence, 250 g ai/ha, visual injury, 0 to 100 scale (0 no effect, 100 complete control)

CCn1nc(C(C)(C)C)cc1C(=O)Nc1cccc(SC)c1 [Compound 131]
Plant response rating (0 = no effect, 100 = complete control), Lambsquarters ([1]; 62 g ai/ha): 95 | Plant response rating, Lambsquarters [1, 14]: 100 | Rice plant response rating [2, 15]: 0 | Rice plant response rating [2, 16]: 0 | Rice plant response rating [2, 17]: 0 | Plant response rating, Rice [2, 18]: 10 | Ducksalad plant response rating [3, 15]: 0 | Ducksalad plant response rating [3, 16]: 20 | Ducksalad plant response rating [3, 17]: 45 | Plant response rating, Ducksalad [3, 18]: 80 | Plant response rating (0 = no effect, 100 = complete control), Sunflower ([4]; 62 g ai/ha): 0 | Plant response rating, Sunflower [4, 14]: 0 | Plant response rating (0 = no effect, 100 = complete control), Corn ([5]; 62 g ai/ha): 0 | Plant response rating, Corn [5, 19]: 0 | Plant response rating, Corn [5, 20]: 0 | Plant response rating, Nutsedge, Yellow ([6]; 31 g ai/ha, scale 0 to 100, last section of Table C): 0 | Plant response rating (0 = no effect, 100 = complete control), Nutsedge, Yellow ([6]; 62 g ai/ha): 0 | Plant response rating, Nutsedge, Yellow [6, 14]: 0 | Plant response rating (0 = no effect, 100 = complete control), Surinam Grass ([7]; 62 g ai/ha): 0 | Plant response rating, Surinam Grass [7, 14]: 0 | Sedge, Umbrella plant response rating [8, 15]: 55 | Sedge, Umbrella plant response rating [8, 16]: 65 | Sedge, Umbrella plant response rating [8, 17]: 70 | Plant response rating, Sedge, Umbrella [8, 18]: 80 | Velvetleaf plant response rating [9, 21]: 15 | Plant response rating, Velvetleaf [9, 22]: 10 | Velvetleaf plant response rating [9, 23]: 60 | Velvetleaf plant response rating [9, 24]: 10 | Plant response rating (0 = no effect, 100 = complete control), Cupgrass, Woolly ([10]; 62 g ai/ha): 0 | Plant response rating, Cupgrass, Woolly [10, 19]: 0 | Plant response rating, Cupgrass, Woolly [10, 20]: 15 | Plant response rating (0 = no effect, 100 = complete control), Foxtail, Giant ([11]; 62 g ai/ha): 20 | Plant response rating, Foxtail, Giant [11, 19]: 20 | Plant response rating, Foxtail, Giant [11, 20]: 45 | Morningglory plant response rating [12, 21]: 15 | Plant response rating, Morningglory [12, 22]: 15 | Morningglory plant response rating [12, 23]: 35 | Morningglory plant response rating [12, 24]: 15 | Plant response rating (0 = no effect, 100 = complete control), Morningglory ([13]; 62 g ai/ha): 0 | Plant response rating, Morningglory [13, 14]: 0
